Test results published in patent US10166289B2, “Compositions including beta-glucans and method of use” (BIOTHERA, INC., priority 2011, dated 2019).

Key:
[1] = tested on: human neutrophils, monocytes, B-cells, and monocyte-derived dendritic cells; experiment: Binding of soluble β-glucan to immune cells, flow cytometry with glucan specific Ab BFD IV; assay type: cell-based; details: for binding to immune cells: human neutrophils, monocytes, monocyte-derived dendritic cells
Protocol: Monocyte-derived dendritic cells (MoDCs) were prepared from blood obtained from healthy volunteers as described in Peters et al. (Advances in Experimental Medicine and Biology; 329:275-280; 1993). At day 7, the MoDCs were resuspended in RPMI 1640 supplemented with 10% human serum (Sigma-Aldrich, St. Louis, Mo.). PBMCs were obtained from healthy volunteers and similarly resuspended in RPMI 1640 supplemented with 10% human serum. The MoDCs and PBMCs were treated with vehicle alone or with IMPRIME (Biothera, Eagan, Minn.) at 100 μg/mL, 200 μg/mL, or 400 μg/mL for two hours. Binding of IMPRIME was assessed by flow cytometric analysis with a glucan specific Ab BFD IV (U.S. Pat. No. 6,084,092).

B cells (CD19+) in PBMCs [2] = experiment: Modulation of TLR 7/8 agonist CL097-induced B cell proliferation (CFSE dilution, FACS); assay type: cell-based; details: 2 μM CL097 with 50 μg/mL IMPRIME PGG, five days, 10% human serum
Protocol: (§1) TLR activation of B cells induces cellular proliferation that can be measured by a reduction in the staining intensity of the intracellular dye, carboxyfluorescein succinimidyl ester (CFSE, Invitrogen, Life Technologies Corp., Carlsbad, Calif.). The principle behind this technique is that as a cell divides the CFSE dye is diluted in half between the daughter cells after each division.
(§2) PBMCs obtained from healthy volunteers were treated with 2 μM CL097 (InvivoGen, San Diego, Calif.) in the presence or absence of 50 μg/mL IMPRIME PGG (Biothera, Eagan, Minn.) and cultured over five days in media containing 10% fresh human serum (Sigma-Aldrich, St. Louis, Mo.). The cells were stained with an anti-CD19 antibody (BioLegend, Inc., San Diego, Calif.) to identify the B cell subset in the PBMC mixture and intensity of CFSE staining was measured my FACS analysis (BD Biosciences, San Jose, Calif.).

B cells (CD19+) in PBMCs [3] = experiment: Modulation of TLR 9 agonist CpG 2006-induced B cell proliferation (CFSE dilution, FACS); assay type: cell-based; details: 100 nM CpG 2006 with 50 μg/mL IMPRIME PGG, five days, 10% human serum
Protocol: as §1
as §2, with “100 nM CpG 2006” for “2 μM CL097”

[4] = tested on: monocytes (CD14+) in PBMCs; experiment: Modulation of TLR 4 agonist LPS-induced co-stimulatory marker CD40 expression by monocytes (FACS); assay type: cell-based, human
Protocol: PBMCs obtained from healthy volunteers were treated with 25 ng/mL LPS (InvivoGen, San Diego, Calif.) either concurrently with noted doses of IMPRIME PGG (Biothera, Eagan, Minn.) or after cells were pretreated overnight with IMPRIME PGG. The cells were cultured over five days in media containing 10% fresh human serum and then stained with an anti-CD14 antibody (BioLegend, Inc., San Diego, Calif.) to identify the monocyte subset in the PBMC mixture and an anti-CD40 antibody (BioLegend, Inc., San Diego, Calif.) to evaluate CD40 expression by FACS analysis (BD Biosciences, San Jose, Calif.).

[5] = tested on: systemic pro-inflammatory cytokines; experiment: Induction of systemic pro-inflammatory cytokines

| Substance | binding to immune cells [1] | receptors through which immune cell subsets are bound ([1]; neutrophils and monocytes) | B cell proliferation compared to PBMCs treated with only the TLR agonist (B cells (CD19+) in PBMCs [2]) | B cell proliferation compared to PBMCs treated with only the TLR agonist (B cells (CD19+) in PBMCs [3]) | CD40 expression effect with pre-incubation ([4]; PBMCs pre-incubated overnight with IMPRIME PGG before 25 ng/mL LPS) | CD40 expression compared to treating the PBMCs with only the TLR agonist ([4]; PBMCs, 25 ng/mL LPS concurrently with IMPRIME PGG, five days) | induction of systemic pro-inflammatory cytokines [5] |
| --- | --- | --- | --- | --- | --- | --- | --- |
| laminarin [reference compound] | can bind |  |  |  |  |  |  |
| β(1,6)-[poly-1,3)-D-glucopyranosyl]-poly-β(1,3)-D-glucopyranose [IMPRIME PGG] | can bind | through complement binding receptors (CR2 on B-cells; CR3 on neutrophils and monocytes), not a TLR | increases B cell proliferation | increases B cell proliferation | magnified | an increase in CD40 expression | do not appear to induce systemic pro-inflammatory cytokines |
